According to publication PMC11684029, “Discovery of VU6024578/BI02982816: An mGlu1 Positive Allosteric Modulator with Efficacy in Preclinical Antipsychotic and Cognition Models” (Journal of Medicinal Chemistry, 2024):
“And” between values parts separate entries of the source, which are not always exact repeats. Equal values may be shown once. Read-outs that look alike come from different tables or passages of the source.

What was measured:
[1] = intrinsic clearance, predicted hepatic clearance; format: in vitro ADME, human; conditions: in vitro predicted hepatic clearance
Method: Human or rat hepatic microsomes (0.5 mg/mL) and 1 μM test compound were incubated in 100 mM potassium phosphate pH 7.4 buffer with 3 mM MgCl2 at 37 °C with constant shaking. After a 5 min preincubation, the reaction was initiated by addition of NADPH (1 mM). At selected time intervals (0, 3, 7, 15, 25, and 45 min), aliquots were taken and subsequently placed into a 96-well plate containing cold acetonitrile with internal standard (50 ng/mL carbamazepine). Plates were then centrifuged at 3000 rcf (4 °C) for 10 min, and the supernatant was transferred to a separate 96-well plate and diluted 1:1 with water for LC/MS/MS analysis. The in vitro half-life (T1/2, min, eq 1), intrinsic clearance (CLint, mL/min/kg, eq 2) and subsequent predicted hepatic clearance (CLhep, mL/min/kg, eq 3) was determined employing the following equations: [drawing 2] 1 where k represents the slope from linear regression analysis of the natural log percent remaining of test compound as a function of incubation time [drawing 3] 2
^ascale-up factors: of 20 (human) or 45 (rat) [drawing 4] 3 where Qh (hepatic blood flow, mL/min/kg) is 21 (human) or 70 (rat).

satellite PK for rat AHL = format: in vivo; conditions: 2.5-h end of study; for concentration at 2.5 h: brain, oral, read-out: free brain concentration
Method: Here, administration of 0.75 mg/kg IP of amphetamine induced a robust hyperlocomotive state in rats (>1200 beam breaks), which was dose-dependently reversed by oral administration of 19d. […] Considering the longer time point for exposure and the results, mGlu1 has sufficient target coverage and PK/PD is established for this paradigm.[24]

C57Bl/6 mice = experiment: amphetamine-induced hyperlocomotion (mouse); format: in vivo
Method: In parallel with the rat AHL study, we carried out a mouse AHL study to determine if the PK/PD relationship would remain intact across rodent species. Here, amphetamine was dosed to C57Bl/6 mice at 3 mg/kg s.c. to achieve ∼800 beam breaks, followed by the oral administration of 19d at 3, 10, and 30 mg/kg (Figure 8). […] Thus, mGlu1 has sufficient target coverage and PK/PD^24 is established for this paradigm in mouse and agree well with the PK/PD relationship established in rat for both NOR and AHL wherein free brain concentrations at or above the in vitro EC50 facilitates a significant pharmacodynamic response.
Figure 8 Mouse amphetamine-induced hyperlocomotion and reversal by VU6024578 (19d). Amphetamine (3.0 mg/kg s.c.) induced robust hyperlocomotion, which was dose-dependently reversed by oral administration (0.5% Natrasol/0.015% tween 80 in H2O) of 19d. TEXT PRINTED IN THE PICTURE: VU6024578-09: Mean % reversal: -7.7 ± 32.6 (3 mg/kg i.p. + Amphetamine 3 mg/kg s.c.); Mean % reversal: 84.2 ± 10.2 (10 mg/kg i.p. + Amphetamine 3 mg/kg s.c.); Mean % reversal: 90.0 ± 12.7 (30 mg/kg i.p. + Amphetamine 3 mg/kg s.c.)
Adult male C57/bl6 mice are placed in the activity chambers (Med Associates) to habituate. 90 min later the mice were administered VU6024578 (3–30 mg/kg i.p. Ten ml/kg) or vehicle (0.5% natrasol/0.015% Tween 80) and placed back in the activity chambers. Thirty minutes later the animals were administered Amphetamine (3 mg/kg) and placed back in the activity chambers for 1 h. The data for the studies were analyzed by a between-group 2 way analysis of variance for compound dose and time. Total ambulation from 125 to 180 min was analyzed by one-way ANOVA. Each dose group was compared with the vehicle control group. The calculations were performed and graphed using GraphPad Prism (version 4.03, GraphPad, La Jolla, CA).

B2 = biological target: T1, B2 (Homo sapiens, UniProt P30411); experiment: Eurofins radioligand binding panel; conditions: agonist radioligand
T1 construct: Eurofins (panel run as a service)
T1 sequence (P30411 whole entry): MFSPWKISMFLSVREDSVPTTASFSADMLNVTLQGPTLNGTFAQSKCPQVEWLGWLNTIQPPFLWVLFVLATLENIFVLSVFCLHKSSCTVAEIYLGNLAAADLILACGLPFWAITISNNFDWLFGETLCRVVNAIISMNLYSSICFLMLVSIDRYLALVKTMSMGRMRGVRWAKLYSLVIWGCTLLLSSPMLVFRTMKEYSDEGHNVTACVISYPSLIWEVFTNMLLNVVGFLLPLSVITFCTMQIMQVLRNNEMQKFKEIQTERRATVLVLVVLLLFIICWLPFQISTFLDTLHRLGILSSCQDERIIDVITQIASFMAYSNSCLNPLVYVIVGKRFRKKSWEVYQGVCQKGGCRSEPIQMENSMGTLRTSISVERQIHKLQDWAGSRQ
Description: (§1) Table S1. Eurofins Lead Profiling Screen Data
(§2) This is a radioligand binding panel of 80 targets including GPCRs, ion channels, transporters and nuclear hormones. Biochemical assay results are presented as the percent inhibition of specific […]
(§3) Results showing an inhibition or stimulation higher than 50% are considered to represent significant effect and are highlighted […]
(§4) Target / Protein Species % Inhibition at 10 […]

Adenosine A3 = biological target: T2, Adenosine A3 (Homo sapiens, UniProt P0DMS8); experiment: Eurofins radioligand binding panel; conditions: agonist radioligand
T2 construct: Eurofins
T2 sequence (P0DMS8 whole entry): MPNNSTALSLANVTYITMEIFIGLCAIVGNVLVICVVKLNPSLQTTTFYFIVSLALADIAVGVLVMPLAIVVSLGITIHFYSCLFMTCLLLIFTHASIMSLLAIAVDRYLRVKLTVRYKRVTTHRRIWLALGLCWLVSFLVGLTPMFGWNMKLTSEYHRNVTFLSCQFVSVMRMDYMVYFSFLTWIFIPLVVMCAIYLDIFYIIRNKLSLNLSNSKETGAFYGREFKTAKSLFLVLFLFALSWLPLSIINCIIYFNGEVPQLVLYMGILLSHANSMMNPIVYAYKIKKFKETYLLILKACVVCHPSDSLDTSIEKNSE
Description: as §1, §2, §3, §4

BZD (peripheral) = biological target: T3, BZD (peripheral) (Rattus norvegicus, UniProt P16257); experiment: Eurofins radioligand binding panel; conditions: antagonist radioligand
T3 construct: Eurofins (panel run as a service)
Description: as §1, §2, §3, §4

Adenosine A2A = biological target: T4, Adenosine A2A (Homo sapiens, UniProt P29274); experiment: Eurofins radioligand binding panel; conditions: agonist radioligand
T4 construct: Eurofins
T4 sequence (P29274 whole entry): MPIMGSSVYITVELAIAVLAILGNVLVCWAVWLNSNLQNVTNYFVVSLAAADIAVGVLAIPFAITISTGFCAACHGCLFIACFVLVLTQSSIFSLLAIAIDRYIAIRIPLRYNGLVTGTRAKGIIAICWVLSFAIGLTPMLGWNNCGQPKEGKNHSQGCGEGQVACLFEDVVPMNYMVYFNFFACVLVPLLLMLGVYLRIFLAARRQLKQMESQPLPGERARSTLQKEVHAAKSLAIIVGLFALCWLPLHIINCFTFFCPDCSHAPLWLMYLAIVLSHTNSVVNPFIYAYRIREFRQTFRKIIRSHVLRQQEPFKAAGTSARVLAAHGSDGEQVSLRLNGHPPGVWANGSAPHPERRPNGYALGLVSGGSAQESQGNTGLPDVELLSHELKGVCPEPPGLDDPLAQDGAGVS
Description: as §1, §2, §3, §4

AT2 = biological target: T5, AT2 (Homo sapiens, UniProt P50052); experiment: Eurofins radioligand binding panel; conditions: agonist radioligand
T5 construct: Eurofins (panel run as a service)
T5 sequence (P50052 whole entry): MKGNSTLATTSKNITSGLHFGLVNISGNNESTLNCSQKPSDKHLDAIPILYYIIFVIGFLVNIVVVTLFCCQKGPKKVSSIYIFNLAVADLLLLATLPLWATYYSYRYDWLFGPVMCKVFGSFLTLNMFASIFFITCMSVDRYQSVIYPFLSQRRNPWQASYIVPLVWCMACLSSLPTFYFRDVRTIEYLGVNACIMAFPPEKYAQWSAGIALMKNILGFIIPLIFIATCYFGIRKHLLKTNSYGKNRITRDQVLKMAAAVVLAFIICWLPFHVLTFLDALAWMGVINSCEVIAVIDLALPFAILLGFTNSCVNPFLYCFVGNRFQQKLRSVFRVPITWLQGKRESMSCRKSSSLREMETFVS
Description: as §1, §2, §3, §4

CCK1 (CCKA) = biological target: T6, CCK1 (CCKA) (Homo sapiens, UniProt P32238); experiment: Eurofins radioligand binding panel; conditions: agonist radioligand
T6 construct: Eurofins (panel run as a service)
T6 sequence (P32238 whole entry): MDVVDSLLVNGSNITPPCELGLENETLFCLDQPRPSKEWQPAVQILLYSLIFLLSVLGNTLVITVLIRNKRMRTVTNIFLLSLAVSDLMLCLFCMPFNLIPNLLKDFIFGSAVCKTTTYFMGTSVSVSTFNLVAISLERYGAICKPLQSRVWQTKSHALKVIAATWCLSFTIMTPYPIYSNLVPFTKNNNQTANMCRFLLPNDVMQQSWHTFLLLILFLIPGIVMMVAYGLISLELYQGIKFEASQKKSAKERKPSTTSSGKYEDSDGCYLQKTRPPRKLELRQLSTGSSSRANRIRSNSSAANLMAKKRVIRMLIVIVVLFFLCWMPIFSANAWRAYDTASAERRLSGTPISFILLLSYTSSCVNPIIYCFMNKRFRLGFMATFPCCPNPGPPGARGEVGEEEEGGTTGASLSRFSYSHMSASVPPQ
Description: as §1, §2, §3, §4

AT1 = biological target: T7, AT1 (Homo sapiens, UniProt P30556); experiment: Eurofins radioligand binding panel; conditions: antagonist radioligand
T7 construct: Eurofins
T7 sequence (P30556 whole entry): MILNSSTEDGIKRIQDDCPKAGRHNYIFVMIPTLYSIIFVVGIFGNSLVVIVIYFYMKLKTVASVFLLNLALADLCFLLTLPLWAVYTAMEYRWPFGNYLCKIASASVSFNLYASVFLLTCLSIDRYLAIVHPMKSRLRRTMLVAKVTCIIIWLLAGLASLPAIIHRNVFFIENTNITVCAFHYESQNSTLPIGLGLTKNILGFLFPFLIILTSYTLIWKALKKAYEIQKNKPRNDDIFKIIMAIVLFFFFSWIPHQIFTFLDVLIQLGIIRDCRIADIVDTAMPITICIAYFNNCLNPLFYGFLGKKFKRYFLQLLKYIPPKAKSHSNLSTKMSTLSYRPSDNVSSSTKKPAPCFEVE
Description: as §1, §2, §3, §4

CGRP = biological target: T8, CGRP (Homo sapiens, UniProt O60894+Q16602); experiment: Eurofins radioligand binding panel; conditions: agonist radioligand
T8 construct: Eurofins (panel run as a service)
T8 sequence (Q16602 23-461): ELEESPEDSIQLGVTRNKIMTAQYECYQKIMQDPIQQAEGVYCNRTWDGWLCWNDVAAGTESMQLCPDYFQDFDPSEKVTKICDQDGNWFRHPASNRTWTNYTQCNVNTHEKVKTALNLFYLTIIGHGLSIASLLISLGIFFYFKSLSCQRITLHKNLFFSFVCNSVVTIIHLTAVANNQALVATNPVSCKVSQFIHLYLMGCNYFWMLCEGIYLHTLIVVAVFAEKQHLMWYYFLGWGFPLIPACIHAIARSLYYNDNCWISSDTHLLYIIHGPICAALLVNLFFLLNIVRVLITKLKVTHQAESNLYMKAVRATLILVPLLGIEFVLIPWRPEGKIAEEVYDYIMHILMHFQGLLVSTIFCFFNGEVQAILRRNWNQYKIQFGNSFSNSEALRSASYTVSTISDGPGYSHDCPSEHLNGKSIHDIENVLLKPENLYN
T8 sequence (O60894 27-148 partner): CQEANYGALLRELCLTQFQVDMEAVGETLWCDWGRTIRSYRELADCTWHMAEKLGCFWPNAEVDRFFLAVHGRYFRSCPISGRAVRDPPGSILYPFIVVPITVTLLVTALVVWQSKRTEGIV
Description: as §1, §2, §3, §4

BZD (central) = experiment: Eurofins radioligand binding panel; conditions: agonist radioligand
Description: as §1, §2, §3, §4

CB1 = biological target: T9, CB1 (Homo sapiens, UniProt P21554); experiment: Eurofins radioligand binding panel; conditions: agonist radioligand
T9 construct: Eurofins (panel run as a service)
T9 sequence (P21554 whole entry): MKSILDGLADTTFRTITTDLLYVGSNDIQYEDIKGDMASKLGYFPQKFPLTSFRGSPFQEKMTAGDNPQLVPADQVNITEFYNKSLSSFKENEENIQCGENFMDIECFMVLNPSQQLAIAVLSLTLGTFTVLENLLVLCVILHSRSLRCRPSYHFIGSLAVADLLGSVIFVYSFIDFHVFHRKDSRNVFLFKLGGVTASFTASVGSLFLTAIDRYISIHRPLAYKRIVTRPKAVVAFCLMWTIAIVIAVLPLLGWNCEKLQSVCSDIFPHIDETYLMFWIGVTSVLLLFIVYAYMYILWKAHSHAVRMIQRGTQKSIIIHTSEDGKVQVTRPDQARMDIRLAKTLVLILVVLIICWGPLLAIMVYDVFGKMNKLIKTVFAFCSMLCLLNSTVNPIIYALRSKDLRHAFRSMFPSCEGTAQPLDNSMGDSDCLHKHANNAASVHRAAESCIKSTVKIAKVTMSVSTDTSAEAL
Description: as §1, §2, §3, §4

Adrenergic beta 1 = biological target: T10, Adrenergic beta 1 (Homo sapiens, UniProt P08588); experiment: Eurofins radioligand binding panel; conditions: agonist radioligand
T10 construct: Eurofins
T10 sequence (P08588 whole entry): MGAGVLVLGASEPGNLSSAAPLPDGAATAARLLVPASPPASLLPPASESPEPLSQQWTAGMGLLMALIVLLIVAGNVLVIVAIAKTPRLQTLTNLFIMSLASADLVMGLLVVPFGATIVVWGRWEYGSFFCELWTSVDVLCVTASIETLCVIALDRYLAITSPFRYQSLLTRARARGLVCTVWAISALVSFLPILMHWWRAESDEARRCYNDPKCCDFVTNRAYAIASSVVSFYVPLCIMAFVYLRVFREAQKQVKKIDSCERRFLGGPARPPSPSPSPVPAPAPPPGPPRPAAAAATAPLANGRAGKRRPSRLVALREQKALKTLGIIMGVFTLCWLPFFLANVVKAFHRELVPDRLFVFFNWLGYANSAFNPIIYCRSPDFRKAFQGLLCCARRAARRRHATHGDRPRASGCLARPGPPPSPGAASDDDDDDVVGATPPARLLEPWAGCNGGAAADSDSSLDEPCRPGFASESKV
Description: as §1, §2, §3, §4

Adrenergic beta 2 = biological target: T11, Adrenergic beta 2 (Homo sapiens, UniProt P07550); experiment: Eurofins radioligand binding panel; conditions: antagonist radioligand
T11 construct: Eurofins
T11 sequence (P07550 whole entry): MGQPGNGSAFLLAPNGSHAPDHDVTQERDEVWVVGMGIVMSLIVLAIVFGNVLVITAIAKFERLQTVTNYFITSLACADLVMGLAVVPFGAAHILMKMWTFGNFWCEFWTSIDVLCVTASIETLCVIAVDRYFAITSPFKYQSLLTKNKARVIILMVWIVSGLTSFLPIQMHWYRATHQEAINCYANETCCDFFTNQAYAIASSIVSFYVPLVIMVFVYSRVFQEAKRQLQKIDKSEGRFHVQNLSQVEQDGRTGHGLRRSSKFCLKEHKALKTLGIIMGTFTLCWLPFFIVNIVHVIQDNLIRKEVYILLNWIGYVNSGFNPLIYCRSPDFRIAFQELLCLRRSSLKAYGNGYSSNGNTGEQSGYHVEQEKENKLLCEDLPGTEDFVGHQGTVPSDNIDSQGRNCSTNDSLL
Description: as §1, §2, §3, §4

Cn1nc(-c2ccnn2C)cc1CNC(=O)c1cc(-c2ccco2)ccc1Cl [Compound 19d, 2-Chloro-N-((1,2′-dimethyl-1H,2’H-[3,3′-bipyrazol]-5-yl)methyl)-5-(furan-2-yl)benzamide]
CLhep, human [1]: 16 mL/min/kg and 15.8 mL/min/kg | free brain concentration over in vitro EC50 (satellite PK for rat AHL; 3 mg/kg): ~0.6 fold | free brain concentration over in vitro EC50 (satellite PK for rat AHL; 10 mg/kg): ~1.2 fold | concentration at 2.5 h (satellite PK for rat AHL; 3 mg/kg): 32 nM | concentration at 2.5 h (satellite PK for rat AHL; 10 mg/kg): 67 nM | reversal of AHL, in words (C57Bl/6 mice; 3 mg/kg): no reversal | Mean % reversal of AHL (C57Bl/6 mice; 3 mg/kg i.p.): -7.7 ± 32.6% | reversal of AHL, in words (C57Bl/6 mice; 10 mg/kg): Full reversal | Mean % reversal of AHL (C57Bl/6 mice; 10 mg/kg i.p.): 84.2 ± 10.2% | reversal of AHL, in words (C57Bl/6 mice; 30 mg/kg): Full reversal | Mean % reversal of AHL (C57Bl/6 mice; 30 mg/kg i.p.): 90.0 ± 12.7% | inhibition at 10 µM (B2): 7% | inhibition at 10 µM (Adenosine A3): 23% | inhibition at 10 µM (BZD (peripheral)): 96% | inhibition at 10 µM (Adenosine A2A): -1% | inhibition at 10 µM (AT2): 2% | inhibition at 10 µM (CCK1 (CCKA)): 7% | inhibition at 10 µM (AT1): -1% | inhibition at 10 µM (CGRP): 1% | % Inhibition at 10 µM (BZD (central)): 5% | inhibition at 10 µM (CB1): 0% | inhibition at 10 µM (Adrenergic beta 1): 1% | inhibition at 10 µM (Adrenergic beta 2): -1%
